Consider 1 compound from patent US12128035B2, “Activating pyruvate kinase R” (Novo Nordisk Health Care AG, priority 2021, dated 2024).

Where “and” joins values, the source holds several entries; their conditions need not be identical. Equal entries are not always repeated.

The assay has as its target T1, wt-PKR in mature human erythrocytes (Homo sapiens, UniProt P30613).
T1 construct: host or cells: purified human RBCs from donors
Briefly: Cell assay: PKR activation in human RBCs (Biovision Pyruvate Kinase Assay). The following applies: 3 hr treatment. In kind it is cell-based. The procedure: The activation of wt-PKR by Compound 1 in mature human erythrocytes ex vivo was evaluated in purified RBCs purchased from Research Blood Components. Cells treated with Compound 1 for 3 hr in glucose-containing media were washed, lysed, and assayed using a Biovision Pyruvate Kinase Assay (K709-100). The assay was repeated multiple times to account for donor-to-donor variability and the relatively narrow dynamic range.

T1 sequence (P30613 whole entry): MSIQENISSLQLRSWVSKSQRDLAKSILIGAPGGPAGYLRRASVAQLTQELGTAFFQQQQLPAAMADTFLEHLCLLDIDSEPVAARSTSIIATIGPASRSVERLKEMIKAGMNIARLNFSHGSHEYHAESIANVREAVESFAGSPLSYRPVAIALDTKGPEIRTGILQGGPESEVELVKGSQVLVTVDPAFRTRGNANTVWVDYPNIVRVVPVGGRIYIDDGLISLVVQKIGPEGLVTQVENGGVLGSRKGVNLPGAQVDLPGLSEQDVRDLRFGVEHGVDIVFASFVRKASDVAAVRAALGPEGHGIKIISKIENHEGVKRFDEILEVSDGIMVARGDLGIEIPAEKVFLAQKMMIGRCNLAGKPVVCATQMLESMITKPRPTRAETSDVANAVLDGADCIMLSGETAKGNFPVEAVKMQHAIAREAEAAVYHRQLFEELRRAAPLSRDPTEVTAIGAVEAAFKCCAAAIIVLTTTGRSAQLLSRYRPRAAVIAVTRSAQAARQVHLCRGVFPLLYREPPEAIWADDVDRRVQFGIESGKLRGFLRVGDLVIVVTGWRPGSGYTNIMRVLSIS

Consider `O=C([C@H](CO)c1ccccc1)N1CC2=C(C1)CN(S(=O)(=O)c1cnc3c(c1)OCCO3)C2` (single isomer, unassigned) [Compound 1], for which the “Max − Min (%), Mean” value (mean of replicates) is reported as below 100%. In addition, where the note is “single replicates”, the “Max − Min (%)” value was <125% and <150% and <100% and <50%.
